Measured values from publication PMC3289549 (Biochemistry, 2011).
“Also recorded” adds a separate entry of the source. Where two headings read alike, the source gives them in different places.

What was measured:
Pin1 [1] = biological target: T1, Pin1 (Homo sapiens, UniProt Q13526); experiment: α-chymotrypsin protease-coupled Pin1 inhibition assay; assay type: biochemical; conditions: for IC50: protease-coupled assay, substrate succinyl–Ala–Glu–cis-Pro–Phe–pNA, 4 °C, duplicate
Aqueous solubility = assay type: physicochemical; conditions: qualitative
Pin1 [2] = biological target: T1, Pin1; conditions: cited from earlier work
Pin1 [3] = biological target: T1, Pin1; conditions: cited from earlier work; remark: listed apart in the source

T1 sequence (Q13526 whole entry): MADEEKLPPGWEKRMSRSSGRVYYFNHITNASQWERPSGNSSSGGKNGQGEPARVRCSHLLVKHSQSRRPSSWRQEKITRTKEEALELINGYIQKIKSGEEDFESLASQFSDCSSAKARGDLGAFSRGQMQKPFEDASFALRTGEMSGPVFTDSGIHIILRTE

Compound: CC(=O)N[C@@H](COP(=O)(O)O)CN1CCCCC1C(=O)NCCc1c[nH]c2ccccc12 (mixture of isomers) [Compound 4a, Ac–pSer–Ψ[CH2N]-(R/S)Pip ^a–tryptamine]
- IC50 (Pin1 [1]): 16 ± 2 µM
- fold more potent than diastereomer 4b (Pin1 [1]; ratio of IC50 values vs 4b): approximately 12 fold

Compound: CC(=O)N[C@@H](COP(=O)(O)O)CN1CCCCC1C(=O)NCCc1c[nH]c2ccccc12 (mixture of isomers) [Compound 4b, Ac–pSer–Ψ[CH2N]-(R/S)Pip ^a–tryptamine]
- IC50 (Pin1 [1]): 189 ± 17 µM

Compound: O=C(N[C@@H](COP(=O)(O)O)CN1CCC[C@H]1C(=O)NCCc1c[nH]c2ccccc12)OCC1c2ccccc2-c2ccccc21 [Compound 1, Fmoc–pSer–Ψ[CH2N]-Pro–tryptamine]
- IC50 (Pin1 [1]): 6.3 ± 0.4 µM
- fold better inhibition than compound 3 (Pin1 [1]; ratio of IC50 values vs 3): 5 fold
- aqueous solubility (Aqueous solubility): very poor

Compound: CC(OP(=O)(O)O)C(CN1CCCC1C(=O)NCCc1c[nH]c2ccccc12)NC(=O)OCC1c2ccccc2-c2ccccc21 (stereo not shown) [Compound 3, Fmoc–pThr–Ψ[CH2N]-Pro–tryptamine]
- IC50 (Pin1 [1]): 30 ± 2 µM

Compound: O=C(NC(C=C1CCCC1C(=O)NCCc1c[nH]c2ccccc12)COP(=O)(O)O)OCC1c2ccccc2-c2ccccc21 (stereo not shown) [Fmoc-pSer–Ψ[(Z)CH=C]Pro–2-(indol-3-yl)-ethylamine]
- IC50 (Pin1 [2]; similarly substituted ground-state (cis-alkene) analogue): 28.3 µM

Compound: Ac–Lys(N-biotinoyl)–Ala–Ala–Bth–D-Thr(PO3H2)–Pip–Nal–Gln–NH2
- Ki (Pin1 [3]): 0.00021 µM

Compound: Ac–pSer–Ψ[CH2N]-Pro–tryptamine [Compound 2]
- IC50 (Pin1 [1]): 12 ± 2 µM
- fold less potent than inhibitor 1 (Pin1 [1]; ratio of IC50 values vs 1): 2 fold
- fold better than the similarly substituted ketone (Pin1 [1]; ratio of IC50 values vs Ac–pSer–Ψ[COCH]-Pip–2-(indol-3-yl)-ethylamine): 5 fold
- fold better than the similarly substituted α-ketoamide inhibitor (Pin1 [1]; ratio of IC50 values vs Ac–pSer–Ψ[COCON]-Pro–2-(naphth-2-yl)-ethylamine): 6 fold
- aqueous solubility (Aqueous solubility): improved aqueous solubility; also recorded: improved the water solubility

Compound: Ac–pSer–Ψ[COCH]-Pip–2-(indol-3-yl)-ethylamine
- IC50 (Pin1 [2]; similarly substituted ketone): 61 µM

Compound: Ac–pSer–Ψ[COCON]-Pro–2-(naphth-2-yl)-ethylamine
- IC50 (Pin1 [2]; similarly substituted α-ketoamide inhibitor): 100 µM
